The values below come from PMC6416395, “B1.12: a novel peptide interacting with the extracellular loop of the EBV oncoprotein LMP1” (Scientific Reports, 2019).

For assay [1], the system named is pAkt. The assay is described as follows: Western blot pAkt in C666.1 cells. It counts as cell-based. Conditions: 100 µM peptide, 24 hours, C666.1, Western blot, n = 4 biological replicates. The procedure: (§1) Cells were cultured at 80% confluency and then incubated with 100 µM B1.12 peptide for 24 hours. Subsequently, cells were washed twice with cold PBS and scrapped in ice-cold RIPA buffer (50 mM Tris pH 7.4, 5 mM EDTA pH 8.0, 150 mM NaCl, 0.1% SDS, 0.5% NaDOC, 0.5% NP 40) supplemented with 5 mM PMSF. After 30 minutes on ice, cells were sonicated, and cell debris were removed by centrifugation at 15,000 rpm at 4 °C for 15 minutes. Proteins were quantified using the Bradford Protein Assay (Bio-Rad) according to the manufacturer’s specifications. Thirty μg of total proteins were separated on 10% SDS–PAGE and transferred to PVDF membrane (Amersham Hybond-P). The membranes were blocked at 4 °C overnight with PBS 0.1% Tween 20 containing 5 mg/mL skimmed milk, prior to be incubated with pAkt (Biotechne, diluted 1/2500) pRelA536 (Biotechne, diluted 1/1000), and Tubulin (Thermofisher, diluted 1/1000) antibodies for 2 hours at room temperature, followed by incubation with anti-rabbit or anti-mouse conjugated to horseradish peroxidase at room temperature for 1 hour. The target protein band was visualized using the enhanced chemiluminescence detection system (Amersham ECL Prime Western Blotting Detection Reagent) and luminescent bands were visualized using the VERSADOC imaging system. Band densities were assessed by Image-J software.

In assay [2] the test system is B1 peptide. Briefly: Competitive inhibition of phage B1.12 binding to B1 peptide. More on the design: species or system Epstein-Barr virus (EBV). Conditions: B1.12 phage 2 × 10^10 pfu, room temperature 1 hour. The procedure: Binding of the B1.12 peptide to its target B1 and to HeLa/LMP1 cells was evaluated by a competitive binding assay. […] Then the B1.12 phage (2 × 10^10 pfu) was added to each well and incubated for 1 hour. After washing, the bound phage was detected by the anti-M13 antibody as described previously. For the competition test on HeLa cells expressing or not the viral oncoprotein LMP1, cells were seeded into 96-well plates (10^4 cells/well), washed twice in PBS, and fixed with 4% paraformaldehyde for 30 minutes at room temperature. Synthetic peptides at concentrations of 50, 75, 100 and 200 µM were incubated with the cells at 37 °C for 1 hour and the experiment was carried out as described above. All experiments were done in triplicate and the mean values of OD were used to calculate the rate of competitive inhibition according to the following formula: inhibition ratio = (OD control − OD phage)/OD control × 100, where OD control and OD phage represent the OD450 nm values of phage binding on cells incubated with PBS and with the peptide, respectively.

The subject of assay [3] is pNFκb (pRelA536). The assay is described as follows: Western blot pNFκb (pRelA536) in C666.1 cells. The format is cell-based. Conditions: 100 µM peptide, 24 hours, C666.1, Western blot, n = 4 biological replicates. How it is done: as §1

Entries after “also recorded” stand apart in the source; their conditions may differ. Residues, ends and D or L forms follow the SMILES beside them.

Regarding `CC(C)C[C@H](NC(=O)[C@H](CC(=O)O)NC(=O)[C@H](CC(C)C)NC(=O)[C@@H]1CCCN1C(=O)[C@H](CS)NC(=O)[C@H](C)N)C(=O)N[C@@H](CCCNC(=N)N)C(=O)N[C@@H](CO)C(=O)N1CCC[C@H]1C(=O)N[C@@H](CS)C(=O)NCC(N)=O` [B1.12] (H-ACPLDLRSPCG-NH2; N-terminus and C-terminus assumed), the pAkt expression result in assay [1] is recorded as “low in B1.12-treated-C666.1 compared to those in the untreated or treated with control peptide; also recorded: decreased in B1.12-treated-C666.1 compared to those in the untreated or treated with control peptide more markedly for pAkt”. The “effect on binding of phage B1.12 to target B1” value in assay [2] (increasing peptide concentration, triplicate) was “the inhibition ratio increased gradually”. The inhibition ratio result in assay [2] (peptide 400 µM, triplicate mean) is recorded as “approximately 43%”. In assay [3], the “pNFκb (pRelA536) expression” value is on record as “a weak change; also recorded: decreased in B1.12-treated-C666.1 compared to those in the untreated or treated with control peptide”.
